Source: patent US20040071783A1, “Methods and apparatus for particle formation” (priority 1998, published 2004)

Key:
[1] = Particle size analysis using the Aerosizer/Aerodisperser system; format: physicochemical; details: particle size distribution
Protocol: Particle size analysis of the product was carried out using the Aerosizer/Aerodisperser system (API, USA).

Crystallinity by XRPD = format: physicochemical; details: XRPD pattern
[2] = SEM, in comparison

Row | SMILES | SIZE, 5% UNDER [1] [micron] | SIZE, 10% UNDER [1] [micron] | SIZE, 15% UNDER [1] [micron] | SIZE, 20% UNDER [1] [micron] | SIZE, 25% UNDER [1] [micron] | SIZE, 30% UNDER [1] [micron] | SIZE, 35% UNDER [1] [micron] | SIZE, 40% UNDER [1] [micron] | SIZE, 45% UNDER [1] [micron] | SIZE, 50% UNDER [1] [micron] | SIZE, 55% UNDER [1] [micron] | SIZE, 60% UNDER [1] [micron] | SIZE, 65% UNDER [1] [micron] | SIZE, 70% UNDER [1] [micron] | SIZE, 75% UNDER [1] [micron] | SIZE, 80% UNDER [1] [micron] | SIZE, 85% UNDER [1] [micron] | SIZE, 90% UNDER [1] [micron] | SIZE, 95% UNDER [1] [micron] | crystallinity (Crystallinity by XRPD) | other results
1 | CC(C)Cc1ccc(C(C)C(=O)O)cc1 (centres unmarked) [Example 1a, ibuprofen] | 9.241 | 11.68 | 13.57 | 15.21 | 16.74 | 18.21 | 19.62 | 20.99 | 22.30 | 23.58 | 24.87 | 26.16 | 27.48 | 28.83 | 30.25 | 31.76 | 33.44 | 35.44 | 38.65 |  | 
2 | CC(C)Cc1ccc(C(C)C(=O)O)cc1 (centres unmarked) [Example 2, ibuprofen] | 5.815 | 7.327 | 8.537 | 9.612 | 10.62 | 11.57 | 12.49 | 13.38 | 14.26 | 15.17 | 16.10 | 17.06 | 18.06 | 19.10 | 20.20 | 21.41 | 22.79 | 24.42 | 26.78 |  | 
3 | O=C(O)c1ccccc1O [Example 3a, salicylic acid] |  |  |  |  |  |  |  |  |  |  |  |  |  |  |  |  |  |  |  | crystalline | 
4 | CC(C)Cc1ccc(C(C)C(=O)O)cc1 (centres unmarked) [Example 1c, ibuprofen] | 3.762 | 4.462 | 5.018 | 5.518 | 5.999 | 6.479 | 6.966 | 7.471 | 8.004 | 8.572 | 9.186 | 9.849 | 10.55 | 11.28 | 12.06 | 12.92 | 13.88 | 14.96 | 16.35 |  | 
5 | CC(C)Cc1ccc(C(C)C(=O)O)cc1 (centres unmarked) [Example 1b, ibuprofen] | 5.920 | 7.411 | 8.631 | 9.720 | 10.75 | 11.72 | 12.66 | 13.56 | 14.43 | 15.30 | 16.18 | 17.07 | 17.99 | 18.94 | 19.95 | 21.05 | 22.25 | 23.67 | 25.84 |  | 
6 | CC(C(=O)O)c1cccc(C(=O)c2ccccc2)c1 (centres unmarked) [Example 4, ketoprofen] |  |  |  |  |  |  |  |  |  |  |  |  |  |  |  |  |  |  |  | confirmed its crystallinity | 
7 | O=C(O)c1cccnc1 [Example 5b, nicotinic acid] |  |  |  |  |  |  |  |  |  |  |  |  |  |  |  |  |  |  |  |  | particle size and morphology [2]: comparable particle size and morphology to that of the product of Example 5a
8 | O=C(O)c1ccccc1O [Example 3b, salicylic acid] |  |  |  |  |  |  |  |  |  |  |  |  |  |  |  |  |  |  |  | crystalline in form | 
